Laboratory results published in ChEMBL document CHEMBL5291721, “A preclinical secondary pharmacology resource illuminates target-adverse drug reaction associations of marketed drugs” (Nat Commun, 2023).

Experiments:
[1] = molecular target: T1, Muscarinic acetylcholine receptor M2 (Homo sapiens, UniProt P08172); type: functional, cell-based
T1 sequence (P08172 whole entry): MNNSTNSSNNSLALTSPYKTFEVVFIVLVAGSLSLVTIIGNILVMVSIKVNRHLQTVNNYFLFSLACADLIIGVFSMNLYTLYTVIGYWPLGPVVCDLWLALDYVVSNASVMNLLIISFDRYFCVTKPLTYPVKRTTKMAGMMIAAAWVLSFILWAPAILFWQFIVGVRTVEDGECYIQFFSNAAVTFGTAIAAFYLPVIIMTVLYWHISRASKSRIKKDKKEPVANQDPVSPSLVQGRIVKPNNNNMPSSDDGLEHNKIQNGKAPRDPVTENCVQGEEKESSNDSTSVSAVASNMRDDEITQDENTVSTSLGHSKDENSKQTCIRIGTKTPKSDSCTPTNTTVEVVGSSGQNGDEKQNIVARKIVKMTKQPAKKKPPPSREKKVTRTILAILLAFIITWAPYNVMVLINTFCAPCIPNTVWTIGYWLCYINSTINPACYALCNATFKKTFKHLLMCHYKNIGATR

Glucocorticoid receptor = molecular target: T2, Glucocorticoid receptor (Homo sapiens, UniProt P04150)
T2 sequence (P04150 whole entry): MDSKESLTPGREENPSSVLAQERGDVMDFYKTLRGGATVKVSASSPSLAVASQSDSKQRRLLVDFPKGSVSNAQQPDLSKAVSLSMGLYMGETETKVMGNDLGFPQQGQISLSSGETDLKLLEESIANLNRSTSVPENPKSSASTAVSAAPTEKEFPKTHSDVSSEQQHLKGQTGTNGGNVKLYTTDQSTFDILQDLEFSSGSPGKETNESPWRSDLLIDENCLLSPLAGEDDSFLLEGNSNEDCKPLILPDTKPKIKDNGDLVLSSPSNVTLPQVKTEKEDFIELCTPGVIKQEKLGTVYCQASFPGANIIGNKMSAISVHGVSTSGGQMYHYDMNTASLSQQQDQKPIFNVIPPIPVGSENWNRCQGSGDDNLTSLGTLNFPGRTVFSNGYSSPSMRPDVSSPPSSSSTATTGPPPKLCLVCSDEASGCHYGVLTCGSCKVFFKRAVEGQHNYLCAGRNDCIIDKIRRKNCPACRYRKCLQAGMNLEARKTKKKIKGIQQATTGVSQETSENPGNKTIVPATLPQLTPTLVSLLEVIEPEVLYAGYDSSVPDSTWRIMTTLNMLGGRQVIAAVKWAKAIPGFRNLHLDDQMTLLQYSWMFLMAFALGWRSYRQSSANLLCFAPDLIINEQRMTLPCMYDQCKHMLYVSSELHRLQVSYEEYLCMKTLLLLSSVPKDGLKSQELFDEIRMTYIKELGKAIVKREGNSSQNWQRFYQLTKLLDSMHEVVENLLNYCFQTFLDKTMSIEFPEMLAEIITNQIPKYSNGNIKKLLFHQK

Histamine H3 receptor = Histamine H3 receptor (Homo sapiens, UniProt Q9Y5N1)
[2] = molecular target: 5-hydroxytryptamine receptor 2A (Homo sapiens, UniProt P28223); type: functional, cell-based
[3] = molecular target: T3, Alpha-2C adrenergic receptor (Homo sapiens, UniProt P18825); type: functional
T3 sequence (P18825 whole entry): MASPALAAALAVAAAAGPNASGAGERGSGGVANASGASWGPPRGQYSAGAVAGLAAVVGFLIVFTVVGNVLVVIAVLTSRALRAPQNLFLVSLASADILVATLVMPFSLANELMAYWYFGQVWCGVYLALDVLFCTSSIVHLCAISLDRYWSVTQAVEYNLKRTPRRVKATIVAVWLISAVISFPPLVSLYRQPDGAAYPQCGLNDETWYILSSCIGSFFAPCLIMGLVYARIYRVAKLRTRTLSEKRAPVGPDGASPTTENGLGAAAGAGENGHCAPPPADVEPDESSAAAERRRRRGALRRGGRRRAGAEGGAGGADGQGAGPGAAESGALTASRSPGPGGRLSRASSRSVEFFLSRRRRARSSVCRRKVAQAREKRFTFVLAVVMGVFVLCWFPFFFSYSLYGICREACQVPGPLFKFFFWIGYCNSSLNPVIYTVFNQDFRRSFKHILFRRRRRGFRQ

[4] = molecular target: Gamma-aminobutyric acid receptor subunit alpha-1 (Rattus norvegicus, UniProt P62813)
[5] = molecular target: T4, 5-hydroxytryptamine receptor 3A (Homo sapiens, UniProt P46098); type: functional
T4 sequence (P46098 whole entry): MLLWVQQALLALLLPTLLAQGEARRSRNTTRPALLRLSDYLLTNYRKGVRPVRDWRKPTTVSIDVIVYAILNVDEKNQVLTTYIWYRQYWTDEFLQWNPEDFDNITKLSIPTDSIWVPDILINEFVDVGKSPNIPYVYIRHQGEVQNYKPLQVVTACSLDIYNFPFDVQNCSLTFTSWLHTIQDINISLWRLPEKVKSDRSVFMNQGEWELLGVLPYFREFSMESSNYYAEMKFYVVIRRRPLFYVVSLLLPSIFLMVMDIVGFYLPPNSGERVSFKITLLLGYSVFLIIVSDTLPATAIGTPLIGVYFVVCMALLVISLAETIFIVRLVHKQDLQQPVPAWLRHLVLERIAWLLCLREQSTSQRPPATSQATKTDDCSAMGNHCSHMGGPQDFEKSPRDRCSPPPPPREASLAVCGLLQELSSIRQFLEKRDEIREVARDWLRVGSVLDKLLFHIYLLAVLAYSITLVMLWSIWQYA

D(1A) dopamine receptor = D(1A) dopamine receptor (Homo sapiens, UniProt P21728); type: functional, cell-based
[6] = molecular target: Delta-type opioid receptor (Homo sapiens, UniProt P41143)
[7] = molecular target: T5, 5-hydroxytryptamine receptor 1A (Homo sapiens, UniProt P08908); type: functional, cell-based
T5 sequence (P08908 whole entry): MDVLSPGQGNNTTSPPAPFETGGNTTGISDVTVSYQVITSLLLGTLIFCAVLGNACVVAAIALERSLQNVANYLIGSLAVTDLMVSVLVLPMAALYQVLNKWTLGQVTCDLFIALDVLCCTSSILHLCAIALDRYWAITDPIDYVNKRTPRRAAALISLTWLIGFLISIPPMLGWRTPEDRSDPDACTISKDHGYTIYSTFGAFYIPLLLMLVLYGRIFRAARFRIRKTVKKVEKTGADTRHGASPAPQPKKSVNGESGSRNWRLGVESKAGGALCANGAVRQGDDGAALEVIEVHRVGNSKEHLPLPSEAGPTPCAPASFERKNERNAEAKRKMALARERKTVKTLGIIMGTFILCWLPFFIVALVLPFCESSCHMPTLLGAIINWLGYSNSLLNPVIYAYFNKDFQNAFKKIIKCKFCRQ

Measured: AC50
Further: assay procedure not described here.

Chain of D(1A) dopamine receptor (P21728 whole entry): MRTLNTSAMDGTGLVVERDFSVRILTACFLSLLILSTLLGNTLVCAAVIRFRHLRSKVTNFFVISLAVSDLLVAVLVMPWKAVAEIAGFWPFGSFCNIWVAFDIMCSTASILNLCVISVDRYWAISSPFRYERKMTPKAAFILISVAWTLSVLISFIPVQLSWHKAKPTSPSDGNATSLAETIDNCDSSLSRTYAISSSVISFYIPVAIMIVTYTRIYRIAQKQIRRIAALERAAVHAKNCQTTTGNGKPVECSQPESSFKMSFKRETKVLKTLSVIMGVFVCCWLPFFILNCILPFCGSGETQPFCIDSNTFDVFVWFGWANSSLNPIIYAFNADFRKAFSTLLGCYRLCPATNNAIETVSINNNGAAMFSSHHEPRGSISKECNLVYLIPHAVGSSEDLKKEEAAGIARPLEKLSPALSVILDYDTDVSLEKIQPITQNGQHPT
Chain of Histamine H3 receptor (Q9Y5N1 whole entry): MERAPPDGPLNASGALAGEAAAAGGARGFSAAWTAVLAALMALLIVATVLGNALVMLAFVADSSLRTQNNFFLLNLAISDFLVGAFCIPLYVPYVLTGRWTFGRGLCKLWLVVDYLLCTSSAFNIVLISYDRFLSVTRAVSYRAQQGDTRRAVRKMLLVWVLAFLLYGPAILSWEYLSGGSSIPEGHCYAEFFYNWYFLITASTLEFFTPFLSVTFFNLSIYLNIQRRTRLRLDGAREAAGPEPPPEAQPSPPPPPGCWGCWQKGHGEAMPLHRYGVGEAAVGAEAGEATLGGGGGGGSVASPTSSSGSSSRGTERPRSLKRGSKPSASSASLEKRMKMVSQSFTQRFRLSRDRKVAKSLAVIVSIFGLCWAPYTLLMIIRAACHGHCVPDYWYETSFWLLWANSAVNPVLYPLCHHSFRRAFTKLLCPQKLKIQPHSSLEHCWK
Chain of Delta-type opioid receptor (P41143 whole entry): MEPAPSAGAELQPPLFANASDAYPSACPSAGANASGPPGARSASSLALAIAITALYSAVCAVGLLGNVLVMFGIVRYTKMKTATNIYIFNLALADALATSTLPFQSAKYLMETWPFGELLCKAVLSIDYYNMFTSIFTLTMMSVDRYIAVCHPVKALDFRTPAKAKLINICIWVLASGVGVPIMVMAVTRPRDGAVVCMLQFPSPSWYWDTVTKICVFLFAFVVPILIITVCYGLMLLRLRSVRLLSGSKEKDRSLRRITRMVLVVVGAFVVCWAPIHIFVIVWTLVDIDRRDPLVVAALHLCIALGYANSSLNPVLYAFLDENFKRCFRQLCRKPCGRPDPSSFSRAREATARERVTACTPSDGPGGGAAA
Chain of Gamma-aminobutyric acid receptor subunit alpha-1 (P62813 whole entry): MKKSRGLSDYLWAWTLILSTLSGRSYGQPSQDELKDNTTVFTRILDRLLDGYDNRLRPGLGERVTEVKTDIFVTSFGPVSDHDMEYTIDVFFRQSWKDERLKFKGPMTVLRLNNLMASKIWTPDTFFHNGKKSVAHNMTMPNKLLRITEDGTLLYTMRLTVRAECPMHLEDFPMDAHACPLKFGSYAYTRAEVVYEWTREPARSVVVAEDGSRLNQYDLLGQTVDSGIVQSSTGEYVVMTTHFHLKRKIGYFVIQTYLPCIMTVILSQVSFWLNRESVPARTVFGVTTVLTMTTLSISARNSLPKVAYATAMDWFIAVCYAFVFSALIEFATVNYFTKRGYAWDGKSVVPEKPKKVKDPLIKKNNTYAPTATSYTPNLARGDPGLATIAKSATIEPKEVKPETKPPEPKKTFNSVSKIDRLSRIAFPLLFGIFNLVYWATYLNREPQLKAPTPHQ
Chain of 5-hydroxytryptamine receptor 2A (P28223 whole entry): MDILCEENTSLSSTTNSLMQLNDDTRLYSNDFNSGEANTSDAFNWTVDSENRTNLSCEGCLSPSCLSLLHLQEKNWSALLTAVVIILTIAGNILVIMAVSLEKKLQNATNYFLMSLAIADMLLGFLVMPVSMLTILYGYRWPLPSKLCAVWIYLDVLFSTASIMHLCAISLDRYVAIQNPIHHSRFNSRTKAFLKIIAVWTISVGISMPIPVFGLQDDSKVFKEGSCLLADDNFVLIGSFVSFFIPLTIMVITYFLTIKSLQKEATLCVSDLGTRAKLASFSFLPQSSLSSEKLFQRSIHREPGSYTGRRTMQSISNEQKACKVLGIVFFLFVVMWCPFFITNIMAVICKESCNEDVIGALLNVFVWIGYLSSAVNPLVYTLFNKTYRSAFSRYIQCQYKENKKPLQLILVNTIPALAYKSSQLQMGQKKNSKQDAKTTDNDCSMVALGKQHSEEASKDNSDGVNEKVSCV

C=C[C@@]1(C)CC(=O)[C@]2(O)[C@@]3(C)[C@@H](O)CCC(C)(C)[C@@H]3[C@H](OC(=O)CCN(C)C)[C@H](OC(C)=O)[C@@]2(C)O1
not listed: D(1A) dopamine receptor | [6] | [7]
> 30 µM: all other assays above

CC(=O)OCC(=O)[C@@]1(O)CC[C@H]2[C@@H]3CCC4=CC(=O)CC[C@]4(C)C3=CC[C@@]21C [ANECORTAVE ACETATE]
> 30 µM: [6] | [5]
1.7 µM: Glucocorticoid receptor
not listed: [7]
> 10 µM: all other assays above

CCN(CC)C(=O)C1CN2CCc3cc(OC)c(OC)cc3C2CC1OC(C)=O (configuration not stated) [BENZQUINAMIDE]
1.7 µM: [3]
not listed: [7]
> 30 µM: all other assays above

C=CC1=C(C(=O)O)N2C(=O)[C@@H](NC(=O)/C(=N\OCC(=O)O)c3csc(N)n3)[C@H]2SC1 [CEFIXIME]
> 30 µM: [1] | Histamine H3 receptor | [2] | [3] | D(1A) dopamine receptor

CCC(C)(Oc1ccc(C2(c3ccc(OC(C)(CC)C(=O)O)cc3)CCCCC2)cc1)C(=O)O (configuration not stated) [CLINOFIBRATE]
not listed: [7]
> 30 µM: all other assays above

C[C@@H]1C[C@H]2[C@@H]3C[C@H](F)C4=CC(=O)C=C[C@]4(C)[C@@]3(F)[C@@H](O)C[C@]2(C)[C@H]1C(=O)CO [DIFLUCORTOLONE]
> 30 µM: [2] | [3] | [6]

CCCCC[C@H](O)/C=C/[C@H]1[C@H](O)CC(=O)[C@@H]1C/C=C\CCCC(=O)O [DINOPROSTONE]
not listed: [7]
> 30 µM: all other assays above

CC(C)c1cc2c(cc1S(=O)(=O)O)[C@@]1(C)CCC[C@@](C)(C(=O)O)[C@@H]1CC2 [ECABET]
not listed: Glucocorticoid receptor | [7]
> 30 µM: all other assays above

CCCN(CC)C(CC)C(=O)Nc1c(C)cccc1C (configuration not stated) [ETIDOCAINE]
not listed: [7]
> 30 µM: all other assays above

Nc1nc2c(c(=O)[nH]1)N(C=O)C(CNc1ccc(C(=O)N[C@@H](CCC(=O)O)C(=O)O)cc1)CN2 (some centres not stated) [LEUCOVORIN]
not listed: [2]
> 30 µM: all other assays above

CC(C)OC(=O)C(C(=O)OC(C)C)=C1SC=CS1 [MALOTILATE]
not listed: [7]
> 30 µM: all other assays above

CN(c1nccc(=O)[nH]1)C1CCN(c2nc3ccccc3n2Cc2ccc(F)cc2)CC1 [MIZOLASTINE]
not listed: Glucocorticoid receptor | [7]
> 30 µM: all other assays above

O=C1CN=C(c2ccccc2)c2cc(Cl)ccc2N1 [NORDAZEPAM]
> 30 µM: Glucocorticoid receptor
not listed: [2]
> 10 µM: all other assays above

CCn1cc(C(=O)O)c(=O)c2cc(F)c(N3CCN(C)CC3)cc21 [PEFLOXACIN]
not listed: [2]
> 30 µM: all other assays above

CC(C)CC(N(C)C)C1(c2ccc(Cl)cc2)CCC1 (configuration not stated) [SIBUTRAMINE]
3.8 µM: [3]
19 µM: [1]
> 30 µM: Glucocorticoid receptor | [6] | [5]
not listed: [2]
> 10 µM: all other assays above

[H]/N=C(/N)N[C@H]1[C@H](O)[C@@H](O)[C@H](O[C@@H]2O[C@@H](C)[C@](O)(C=O)[C@H]2O[C@@H]2O[C@@H](CO)[C@H](O)[C@@H](O)[C@@H]2NC)[C@@H](N/C(N)=N\[H])[C@@H]1O [STREPTOMYCIN]
> 10 µM: [7]
not listed: [2]
> 30 µM: all other assays above

CC(C)(C)NC[C@H](O)COc1nsnc1N1CCOCC1 [TIMOLOL]
4.2 µM: [7]
not listed: [2]
> 30 µM: all other assays above

COc1cc2nccc(Oc3ccc(NC(=O)Nc4cc(C)on4)c(Cl)c3)c2cc1OC [TIVOZANIB]
> 30 µM: [1] | [2] | [3]
